Read-outs that look alike come from different tables or passages of the source.
Assays:
pOBP [1] = target: T1, pOBP (Sus scrofa, UniProt P81245); experiment: HS-SPME/GC-MS binding assay with pOBP; parameters: species or system porcine; conditions: pOBP 30 µM; 10 µM volatile, overnight, room temperature
T1 sequence (P81245 1-157): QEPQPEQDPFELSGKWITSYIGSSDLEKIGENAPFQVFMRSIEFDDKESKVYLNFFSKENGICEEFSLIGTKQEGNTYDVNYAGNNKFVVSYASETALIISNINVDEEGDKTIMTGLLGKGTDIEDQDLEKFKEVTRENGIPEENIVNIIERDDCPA
Method: To assess the ability of pOBP to bind VOCs, HS-SPME/GC-MS analyses were carried out on binding assays in the absence and in the presence of the two OBPs. Binding assay experiments were conducted in parallel on samples in the absence (only buffer as negative control) and in the presence of bovine serum albumin (BSA) (used as negative control of protein) or pOBP.
The HS-SPME/GC-MS technique was used to evaluate the VOCs profiles of samples of raw cow milk and, successively, the ability of purified OBPs to bind to selected VOCs in the gas phase. According to Sacchi et al., 5 mL of milk were introduced in a HS-SPME 20 mL glass vial, with 5 µL of a standard solution of 2-methyl-3-pentanone used as internal standard (IS, 5 mM). Samples were equilibrated for 30 min at 55 °C to release VOCs. […] The analyses were carried out using the pulsed spitless mode, and mass spectra were recorded at an ionization energy of 70 eV, with mass selective detector operating in the mass range between 30 and 300 u. […]
Linear retention indices (LRIs) were calculated using the same chromatographic conditions by injecting C8–C40 n-alkane series (Supelco, Bellefonte, PA, USA). VOCs were identified by comparing the mass spectra reported in the NIST-2014 and Wiley 7.0 libraries by matching the calculated LRI with the literature data and by valuating their retention times, with respect to those of pure standards, if available. The VOCs concentrations were expressed as the equivalent of the IS (percent ratio of the respective peak area relative to the IS area, RPA%), and areas were taken from the total ion chromatogram (TIC) according to the following equation: (Peak Area of each VOC/Peak Area IS) × 100.
Using the same experimental parameters reported above, HS-SPME/GC-MS analysis was also performed on pOBP samples with and without exposition to the HS of the selected VOCs. […] The peak areas measured for PBS-only and pOBP-comprising samples were compared for each experiment. […]

[2] = target: bovine serum albumin (BSA) (Bos taurus, UniProt P02769); experiment: HS-SPME/GC-MS binding assay with BSA (negative control protein); conditions: BSA in place of pOBP; 10 µM volatile, overnight, room temperature
Method: Afterwards, the fiber (DVB-Carboxen-PDMS, 2 cm length SUPELCO, Bellefonte, PA, USA) was automatically inserted in the vial for 60 min and then desorbed for 10 min at 250 °C in the injector port of a GC, model 7890A, Agilent (Agilent Technologies, Santa Clara, CA, USA) coupled to a mass spectrometer, model 5975 C (Agilent), where VOCs were thermally released and directly transported to a capillary column HP-Innowax (30 m × 0.25 mm × 0.5 µm Agilent J&W) for analysis. The oven temperature was set as follows: 40 °C for 1 min, ramped to 160 °C at 6 °C min^−1, then, after 1 min, increased 10 °C min^−1 to 210 °C, and finally ramped to 230 °C at 15 °C min^−1, and kept there for 5 min. The temperatures of the ion source and the quadrupole were 230 °C and 150 °C, respectively, and helium at a flow rate of 1.0 mL min^−1 was the carrier gas. The analyses were carried out using the pulsed spitless mode, and mass spectra were recorded at an ionization energy of 70 eV, with mass selective detector operating in the mass range between 30 and 300 u. […]
Linear retention indices (LRIs) were calculated using the same chromatographic conditions by injecting C8–C40 n-alkane series (Supelco, Bellefonte, PA, USA). VOCs were identified by comparing the mass spectra reported in the NIST-2014 and Wiley 7.0 libraries by matching the calculated LRI with the literature data and by valuating their retention times, with respect to those of pure standards, if available. The VOCs concentrations were expressed as the equivalent of the IS (percent ratio of the respective peak area relative to the IS area, RPA%), and areas were taken from the total ion chromatogram (TIC) according to the following equation: (Peak Area of each VOC/Peak Area IS) × 100. […]

pOBP [3] = target: T1, pOBP; experiment: Thermal denaturation of pOBP by tryptophan fluorescence; format: physicochemical, porcine; conditions: for effect of VOC on thermal stability (Tm) of pOBP: saturating concentrations: 1-pentanol 50 mM, 1-octen-3-ol 5 mM, 2-butanone 10 mM
Method: (§1) Thermal stability studies were conducted to evaluate the temperature-induced denaturation of the pOBP and bOBP. The experiments aimed to determine the unfolding dynamics of these proteins and assess the influence of VOCs on protein stability. The thermal stabilities of pOBP and bOBP were monitored by fluorescence spectroscopy. The temperature-dependent fluorescence emission spectra were recorded in the range 320–410 nm, with excitation at 295 nm to selectively excite tryptophan residues.
(§2) Boltzmann fitting was applied to describe the thermal denaturation behavior and determine the melting temperature (Tm) values, defined as the midpoint of the transition between the folded and unfolded states. The calculated Tm values were 62 ± 0.4 °C for pOBP (Figure 6b) and 54 ± 0.5 °C for bOBP (Figure 7b).
(§3) To analyze the protein’s thermal stability, studies on temperature-induced denaturation were conducted on the chosen OBPs in the absence and presence of the selected VOCs. The emission spectra were recorded at an excitation wavelength of 295 nm to focus only on the contribution of tryptophan residues with a 12 μM pOBP sample, with an optical density around 0.1 OD at 295 nm.
Fluorescence intensity variation was recorded in the temperature range from 25 to 95 °C and the emission spectra acquired in the wavelength range 320–410 nm. Measurements were performed in triplicate after 10 min of incubation at defined temperatures. […] To analyze the thermal denaturation data, OriginPro 2021b software was used.

pOBP [4] = target: T1, pOBP; experiment: Fluorescence titration with 1-AMA and competitive FRET assay on pOBP; format: binding, porcine
Method: (§4) The ability of pOBP and bOBP to bind 1-AMA was assessed through fluorescence titration experiments. […] However, upon binding 1-AMA to OBPs, two major spectral changes were observed: • A blue-shift in the emission maximum to 481 nm, along with a significant increase in fluorescence intensity. • A decrease in the tryptophan fluorescence emission at 340 nm.
(§5) A competitive FRET assay was performed to study the interaction between the OBP and the selected VOCs. In the assay, a solution of OBPs in the presence of 1-AMA was titrated with increasing concentrations of VOCs. The fluorescence emissions at 481 nm (1-AMA bound state) and 340 nm (tryptophan emission) were recorded. A progressive decrease of 1-AMA fluorescence emission and a partial recovery of the protein tryptophan emission were observed. This trend indicates the displacement of 1-AMA from the protein binding site by individual selected VOCs. The variations in the FRET signals, due to competitive binding, were used to quantify the VOC bound to the protein.
Steady-state fluorescence measurements were conducted using an ISS K2 Frequency-Domain Fluorometer (ISS Inc., Champaign, IL, USA) with a 1.0 cm path length quartz cuvette. Fluorescence spectra of bOBP and pOBP samples were recorded, ensuring optical densities below 0.1 OD at 295 nm to prevent inner filter effects. Tryptophan (Trp) residues were excited at 295 nm, and fluorescence emission spectra were collected from 320 nm to 600 nm at 1 nm intervals, with a scan speed of 100 nm/min and excitation and emission slit widths set at 1.0 nm. The lamp power was maintained at 17.5 A. Assays were performed in 500 μL of phosphate saline buffer (PBS) at pH 7.4. The OBPs-VOCs interactions were studied by a fluorescence titration approach. For this purpose, the protein (12 µM, saturated with 1-AMA) was titrated with increasing concentrations of the tested VOC. The measurements were carried out in triplicate, and the obtained experimental data were processed by OriginPro 2021b software.
For the fluorometric competitive assay, the ability of OBPs to bind VOCs and 1-AMA was utilized to develop a FRET-based assay. The competition between VOCs and 1-AMA for binding to the OBP’s active site was studied by monitoring the fluorescence emission decrease consequent to the VOCs displacement of 1-AMA from the OBP’s active site. […] The measurements were carried out in triplicate, and the data were analyzed using the OriginPro 2021b software.

bOBP [5] = target: T2, bOBP (Bos taurus, UniProt P07435); experiment: Fluorescence titration with 1-AMA and competitive FRET assay on bOBP; format: binding, bovine; conditions: read-out: bOBP Kd ± SD; non-linear fitting; PBS pH 7.4; VOCs by displacement of 1-AMA
T2 sequence (P07435 1-159): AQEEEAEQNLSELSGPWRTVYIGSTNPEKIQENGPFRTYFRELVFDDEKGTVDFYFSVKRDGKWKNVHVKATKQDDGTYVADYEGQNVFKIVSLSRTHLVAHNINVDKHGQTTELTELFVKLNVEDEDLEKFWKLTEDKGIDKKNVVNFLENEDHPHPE
Method: as §4
as §5, with “This trend indicates the displacement of 1-AMA from the protein binding site by individual selected VOCs.” left out
Steady-state fluorescence measurements were conducted using an ISS K2 Frequency-Domain Fluorometer (ISS Inc., Champaign, IL, USA) with a 1.0 cm path length quartz cuvette. Fluorescence spectra of bOBP and pOBP samples were recorded, ensuring optical densities below 0.1 OD at 295 nm to prevent inner filter effects. […] The OBPs-VOCs interactions were studied by a fluorescence titration approach. […]

bOBP [6] = target: T3, bOBP (Bos taurus, UniProt P07435, H155C/INS121G/W64C); experiment: Thermal denaturation of bOBP by tryptophan fluorescence; format: physicochemical, bovine; conditions: saturating VOC concentrations
T3 construct: His tag; made in house
T3 sequence (P07435 with tags, fused parts or gaps W64C/INS121G/H155C): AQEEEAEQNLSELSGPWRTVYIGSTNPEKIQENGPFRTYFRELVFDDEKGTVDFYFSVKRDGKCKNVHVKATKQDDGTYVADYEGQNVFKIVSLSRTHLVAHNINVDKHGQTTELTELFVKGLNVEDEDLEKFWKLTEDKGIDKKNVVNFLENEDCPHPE
Method: as §1, §2, §3
Fluorescence intensity variation was recorded in the temperature range from 25 to 95 °C and the emission spectra acquired in the wavelength range 320–410 nm. […]

pOBP [7] = target: T1, pOBP; parameters: method as in earlier work; conditions: HS-DSC, neutral pH; ref 21 (Staiano et al. 2007); cited from earlier work
pOBP [8] = target: T1, pOBP; experiment: Fluorescence quenching (Stern-Volmer) of pOBP; parameters: species or system porcine; conditions: acrylamide quencher, no VOC
Method: To study the protein conformational changes and accessibility to the tryptophan residues, fluorescence quenching experiments were conducted. According to Lakowicz, acrylamide is the most suitable quencher for tryptophan fluorescence. The quenching effect of acrylamide on the intrinsic fluorescence of the protein was analyzed. The study aimed to characterize the accessibility of tryptophan residues, to differentiate between static and dynamic quenching mechanisms, and to assess the effects of the VOCs binding on protein stability. Fluorescence quenching can occur through two primary mechanisms: dynamic (collisional) and static quenching. Dynamic quenching occurs when acrylamide molecules collide with the fluorophore in its excited state, facilitating a non-radiative energy transfer or electron exchange. […]
To evaluate the solvent accessibility of the OBP’s tryptophan residues, a fluorescence quenching assay was performed using acrylamide. […] Fluorescence emission spectra were acquired using an excitation wavelength of 295 nm and emission range from 310 to 410 nm.
Quenching data were evaluated using the Stern–Volmer equation by plotting F0/F against [Q], where F0 represents the fluorescence intensity without quencher, F is the fluorescence intensity in the presence of quencher, and [Q] denotes the quencher concentration [Equation (2)]:(2) F0/F=1+KSV [Q]

[9] = non-linear fitting, PBS pH 7.4, VOCs by displacement of 1-AMA, read-out: pOBP Kd ± SD
[10] = competitive titration with VOC, Figure 4 insets, read-out: k (Hill fit), decrease of 1-AMA emission at 481 nm, pOBP

Chain of bovine serum albumin (BSA) (P02769 25-607): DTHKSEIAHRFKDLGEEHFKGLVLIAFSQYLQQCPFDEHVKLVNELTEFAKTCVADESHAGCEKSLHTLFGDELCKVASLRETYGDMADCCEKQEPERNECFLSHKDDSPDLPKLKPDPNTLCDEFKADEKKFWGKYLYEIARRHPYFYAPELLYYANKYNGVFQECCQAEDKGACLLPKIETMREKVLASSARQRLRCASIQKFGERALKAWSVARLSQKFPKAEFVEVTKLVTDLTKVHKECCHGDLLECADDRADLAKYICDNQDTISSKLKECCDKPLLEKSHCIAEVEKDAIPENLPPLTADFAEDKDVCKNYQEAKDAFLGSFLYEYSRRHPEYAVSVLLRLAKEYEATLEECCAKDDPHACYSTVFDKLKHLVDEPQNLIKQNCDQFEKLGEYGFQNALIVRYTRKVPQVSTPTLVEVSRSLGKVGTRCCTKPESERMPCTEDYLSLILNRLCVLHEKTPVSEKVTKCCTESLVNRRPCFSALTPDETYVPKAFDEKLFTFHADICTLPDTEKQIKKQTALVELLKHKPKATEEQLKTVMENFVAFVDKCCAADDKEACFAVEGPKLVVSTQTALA

CCC(C)=O [2-butanone]
%RPA, pOBP (pOBP [1]): 926.7 ± 10.3 %RPA | %RPA, BSA [2]: 276.2 ± 2.7 %RPA | effect of VOC on thermal stability (Tm) of pOBP (pOBP [3]): significantly stabilized | Kd (pOBP [4]; [9]): 934 ± 56 µM

Nc1cccc2cc3ccccc3cc12 [1-AMA, 1-aminoanthracene, reference compound]
Kd (bOBP [5]): 2.68 ± 0.46 µM | Kd (pOBP [4]): 2.03 ± 0.13 µM

C=CC(O)CCCCC (stereo not drawn) [1-octen-3-ol]
%RPA, pOBP (pOBP [1]): 708.1 ± 2.7 %RPA | %RPA, BSA [2]: 226.7 ± 8.9 %RPA | Tm of pOBP in the presence of VOC (pOBP [3]; saturating VOC concentration (1-octen-3-ol 5 mM)): 64 ± 1.45 °C | effect of VOC on thermal stability (Tm) of pOBP (pOBP [3]): significantly stabilized | Kd (pOBP [4]; [10]): 479 µM | Kd (pOBP [4]; [9]): 479 ± 53 µM

CCCCCO [1-pentanol]
effect of VOC on thermal stability (Tm) of bOBP (bOBP [6]): highest stability | %RPA, pOBP (pOBP [1]): 425.0 ± 8.3 %RPA | %RPA, BSA [2]: 242.5 ± 5.1 %RPA | effect of VOC on thermal stability (Tm) of pOBP (pOBP [3]): significantly stabilized | Kd (pOBP [4]; [10]): 1860 µM | Kd (pOBP [4]; [9]): 1800 ± 1200 µM

B1: pOBP: porcine odorant-binding protein, a typical monomeric lipocalin used as molecular recognition element (protein, UniProt P81245 1-157, looked up)
Odorant-binding protein: T1 sequence (P81245 1-157)
unfolding transition temperature of pOBP (pOBP [7]): approximately 69 °C | melting temperature (Tm) of pOBP (pOBP [3]; no VOC, Boltzmann fitting, emission 340 nm, 25-95 °C): 62 ± 0.4 °C | Stern-Volmer constant K_SV, pOBP (pOBP [8]): 3 ± 1 M^−1

From article PMC12898745, “VOCs Profiling and Quality Assessment of Milk Employing Odorant-Binding Proteins-Based Fluorescence Biosensor” (International Journal of Molecular Sciences, 2026)
